Laboratory results as given in the NIST ThermoML archive (doi:10.1021/je301283e).
± gives the expanded uncertainty stated by the source.

Conditions: Fluid (supercritical or subcritical phases), Vibrating tube method

O=C=O [carbon dioxide]
mass density [kg/m3]
Conditions	313.15 K	333.15 K	353.15 K	373.15 K	393.15 K
340 kPa	8.2 ± 1.4	7.7 ± 1.4	7.4 ± 1.4	6.5 ± 1.4	5.7 ± 1.4
690 kPa	15.1 ± 1.4	13.4 ± 1.4	13.5 ± 1.4	10.9 ± 1.4	9.5 ± 1.4
1030 kPa	21.4 ± 1.4	19.9 ± 1.4	18.8 ± 1.4	17.1 ± 1.4	16.3 ± 1.4
1380 kPa	26.7 ± 1.4	25.1 ± 1.4	24.6 ± 1.4	23.2 ± 1.4	22.1 ± 1.4
1720 kPa	34.2 ± 1.4	31.9 ± 1.4	31.4 ± 1.4	28.6 ± 1.4	26.9 ± 1.4
2070 kPa	38.6 ± 1.4	38.4 ± 1.4	36.1 ± 1.4	32.7 ± 1.4	32 ± 1.4
2410 kPa	48.4 ± 1.4	44.1 ± 1.4	41.9 ± 1.4	39.2 ± 1.4	37 ± 1.4
2760 kPa	56.7 ± 1.4	51.2 ± 1.4	48 ± 1.4	44.8 ± 1.4	–
3100 kPa	64.1 ± 1.4	59.1 ± 1.4	54.1 ± 1.4	50.3 ± 1.4	47.4 ± 1.4
3450 kPa	72.9 ± 1.4	65.1 ± 1.4	61.4 ± 1.4	56.1 ± 1.4	52.9 ± 1.4
3800 kPa	80.9 ± 1.4	73.1 ± 1.4	67.2 ± 1.4	63.2 ± 1.4	58.2 ± 1.4
4140 kPa	87.5 ± 1.4	79.7 ± 1.4	73.8 ± 1.4	67.9 ± 1.4	63.6 ± 1.4
4480 kPa	99.4 ± 1.4	87.9 ± 1.4	80.5 ± 1.4	73.1 ± 1.4	69.2 ± 1.4
4830 kPa	109.8 ± 1.4	96.5 ± 1.4	88 ± 1.4	80 ± 1.4	74.7 ± 1.4
5170 kPa	122 ± 1.4	105.1 ± 1.4	94.9 ± 1.4	86.2 ± 1.4	80.4 ± 1.4
5510 kPa	134 ± 1.4	114.2 ± 1.4	102.4 ± 1.4	93 ± 1.4	86.2 ± 1.4
5860 kPa	145.4 ± 1.4	123.8 ± 1.4	110.2 ± 1.4	99.2 ± 1.4	92.4 ± 1.4
6200 kPa	158 ± 1.5	133.4 ± 1.4	118 ± 1.4	106 ± 1.4	98.1 ± 1.4
6550 kPa	175.1 ± 1.5	144.2 ± 1.4	126.2 ± 1.4	112.9 ± 1.4	104.7 ± 1.4
6890 kPa	194.5 ± 1.5	154.3 ± 1.5	134.4 ± 1.4	120 ± 1.4	110.5 ± 1.4
7240 kPa	218.9 ± 1.6	166.4 ± 1.5	143.4 ± 1.4	127 ± 1.4	113.6 ± 1.4
7580 kPa	239.9 ± 1.7	178.8 ± 1.5	152.1 ± 1.4	135.4 ± 1.4	123.1 ± 1.4
7930 kPa	272.8 ± 1.9	190.1 ± 1.5	161.4 ± 1.4	143.1 ± 1.4	129.9 ± 1.4
8270 kPa	315.6 ± 2.3	205.2 ± 1.6	171.1 ± 1.5	151.1 ± 1.4	136.2 ± 1.4
8620 kPa	383.1 ± 3	219.5 ± 1.8	180.8 ± 1.5	158.1 ± 1.4	142.9 ± 1.4
8960 kPa	478.5 ± 3.5	235.1 ± 2.1	191.1 ± 1.5	166.1 ± 1.4	149.4 ± 1.4
9310 kPa	554.1 ± 3.6	252.4 ± 2.3	201.8 ± 1.5	174.4 ± 1.4	156.2 ± 1.4
9650 kPa	599.1 ± 3.7	271 ± 2.5	211.9 ± 1.5	182.7 ± 1.5	163.2 ± 1.4
10000 kPa	630 ± 3.7	291.4 ± 2.6	223.5 ± 1.5	191.9 ± 1.5	170.4 ± 1.4
10340 kPa	649.1 ± 3.7	313.6 ± 2.6	235 ± 1.6	199.4 ± 1.5	176.4 ± 1.4
10690 kPa	667.8 ± 3.6	337 ± 2.7	247.4 ± 1.6	208.4 ± 1.5	183.2 ± 1.5
11030 kPa	682.9 ± 3.5	361.9 ± 2.7	259.8 ± 1.6	217.3 ± 1.5	191.1 ± 1.5
11380 kPa	696.2 ± 3.4	388 ± 2.7	272.4 ± 1.7	223.2 ± 1.5	198.2 ± 1.5
11720 kPa	708 ± 3.3	411.1 ± 2.7	283.9 ± 1.7	233.1 ± 1.5	203.9 ± 1.5
12070 kPa	718.3 ± 3.2	437.9 ± 2.7	298.3 ± 1.8	242.8 ± 1.5	210.8 ± 1.5
12410 kPa	727.4 ± 3	463.8 ± 2.7	312.1 ± 1.9	252.7 ± 1.5	218 ± 1.5
12750 kPa	737.3 ± 2.9	489.2 ± 2.7	328.4 ± 1.9	262.8 ± 1.6	226.3 ± 1.5
13100 kPa	744.1 ± 2.8	510.1 ± 2.6	342 ± 1.9	272.5 ± 1.6	234 ± 1.5
13440 kPa	751 ± 3	530.7 ± 2.6	356.7 ± 2	283.1 ± 1.6	242.1 ± 1.5
13790 kPa	757.9 ± 2.5	549.9 ± 2.5	372.8 ± 2	293.1 ± 1.6	250.9 ± 1.5
14130 kPa	765.3 ± 2.4	567.7 ± 2.5	388.6 ± 2	304.7 ± 1.6	258 ± 1.5
14480 kPa	770 ± 2.4	582 ± 2.4	403 ± 2.1	314.9 ± 1.6	266.4 ± 1.5
14820 kPa	775.9 ± 2.3	596 ± 2.4	417.8 ± 2.1	325 ± 1.7	275 ± 1.6
15160 kPa	781.5 ± 2.2	609.4 ± 2.3	433 ± 2.1	336.1 ± 1.7	283.9 ± 1.6
15510 kPa	786.4 ± 2.2	621 ± 2.3	447.5 ± 2.1	347.6 ± 1.7	291.1 ± 1.6
15860 kPa	791.7 ± 2.2	627.4 ± 2.3	461 ± 2.1	358.1 ± 1.7	300.7 ± 1.6
16200 kPa	796.1 ± 2.1	642.1 ± 2.2	475 ± 2.1	368.7 ± 1.7	308.4 ± 1.6
16550 kPa	801.2 ± 2.1	651.8 ± 2.2	488.1 ± 2.1	379.8 ± 1.8	316.8 ± 1.6
16900 kPa	805.8 ± 2	661.7 ± 2.1	501 ± 2.1	390.2 ± 1.8	325.1 ± 1.6
17240 kPa	809.8 ± 2	669.7 ± 2.1	513 ± 2.4	400.4 ± 2.1	333.1 ± 1.6
